Data published in publication PMC4996684 (Bioorganic & medicinal chemistry letters, 2016).
Like-named read-outs stand apart in the source and are kept apart here.

Molecular target: T1, human M5 mAChR (Homo sapiens, UniProt P08912)
T1 sequence (P08912 1-532): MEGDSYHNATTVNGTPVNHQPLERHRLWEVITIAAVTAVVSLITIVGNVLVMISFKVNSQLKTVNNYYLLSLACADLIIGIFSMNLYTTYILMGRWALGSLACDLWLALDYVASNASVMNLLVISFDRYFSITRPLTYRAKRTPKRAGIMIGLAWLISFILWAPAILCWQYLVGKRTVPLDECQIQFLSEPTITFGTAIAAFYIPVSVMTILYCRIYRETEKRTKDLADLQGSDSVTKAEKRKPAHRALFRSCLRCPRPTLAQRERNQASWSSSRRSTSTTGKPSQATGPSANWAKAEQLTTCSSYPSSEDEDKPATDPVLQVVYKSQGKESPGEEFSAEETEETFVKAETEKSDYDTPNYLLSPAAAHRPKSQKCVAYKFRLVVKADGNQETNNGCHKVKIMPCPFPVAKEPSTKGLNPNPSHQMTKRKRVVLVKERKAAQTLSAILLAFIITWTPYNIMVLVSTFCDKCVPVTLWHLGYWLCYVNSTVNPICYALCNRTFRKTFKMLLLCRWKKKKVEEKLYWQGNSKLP
Assay: hM5 functional inhibition assay
Assay type: cell-based
Conditions: for hM5 Percent inhibition (Table 3): single point at 10 μM, EC80 of ACh, average of three determinations

For `Cc1nn(C)cc1S(=O)(=O)N1CCC2(CC1)OCCS2` [Compound 9b], the “hM5 Percent inhibition (Table 3)” value was “Inactive”.
For `Cn1cnc(S(=O)(=O)N2CCC3(CC2)OCCS3)c1` [Compound 9h], the “hM5 Percent inhibition (Table 3)” value was “Inactive”.
For `Cc1nn(C)c(C)c1S(=O)(=O)N1CCC2(CC1)OCCS2` [Compound 4, 8-((1,3,5-trimethyl-1H-pyrazol-4-yl)sulfonyl)-1-oxa-4-thia-8-azaspiro[4,5]decane], the inhibition at 10 µM (read-out: hM5 Percent inhibition (Table 2)) was 84%, the inhibition at 10 µM (read-out: hM5 Percent inhibition (Table 3)) was 88% and the inhibition at 10 µM (read-out: maximum M5 inhibition, single point M5 inhibition assay) was 50%. The “activity in the 10 μM single point assay” value (resynthesized 4, 10 μM) was 88%.
